The results in this text go back to patent publication US9556190B2, “Piperidinyloxy lactone orexin receptor antagonists” (MERCK SHARP & DOHME CORP., priority 2013, dated 2017).

In experiment [1] the target is hOX1R (Homo sapiens, UniProt O43613). The experiment in a line: FLIPR Ca2+ Flux Assay, CHO cells expressing orexin-1 receptor. Type of experiment: cell-based. The note with it: 70 pM Ala-6,12 orexin-A agonist. Background: A change in cytosolic calcium serves as a functional read-out for many receptors and channels.
In experiment [2] the target is human orexin-2 receptor (Homo sapiens (Human), UniProt O43614). The experiment in a line: FLIPR Ca2+ Flux Assay, CHO cells expressing orexin-2 receptor. Type of experiment: cell-based. The note with it: 70 pM Ala-6,12 orexin-A agonist, read-out: hOX2R FLIPR IC50. The method, then:
The utility of the compounds in accordance with the present invention as orexin receptor OX1R and/or OX2R antagonists may be readily determined without undue experimentation by methodology well known in the art, including the “FLIPR Ca^2+ Flux Assay” (Okumura et al., Biochem. Biophys. Res. Comm. 280:976-981, 2001). In a typical experiment the OX1 and OX2 receptor antagonistic activity of the compounds of the present invention was determined in accordance with the following experimental method. For intracellular calcium measurements, Chinese hamster ovary (CHO) cells expressing the rat orexin-1 receptor or the human orexin-2 receptor, are grown in Iscove's modified DMEM containing 2 mM L-glutamine, […], 1% hypoxanthine-thymidine supplement, 100 U/ml penicillin, 100 μg/ml streptomycin and 10% heat-inactivated fetal calf serum (FCS). The cells are seeded at 20,000 cells/well into Becton-Dickinson black 384-well clear bottom sterile plates coated with poly-D-lysine. All reagents were from GIBCO-Invitrogen Corp. The seeded plates are incubated overnight at 37° C. and 5% CO2. Ala-6,12 human orexin-A as the agonist is prepared as a 1 mM stock solution in 1% bovine serum albumin (BSA) and diluted in assay buffer (HBSS containing 20 mM HEPES, 0.1% BSA and 2.5 mM probenecid, pH7.4) for use in the assay at a final concentration of 70 pM. Test compounds are prepared as 10 mM stock solution in DMSO, then diluted in 384-well plates, first in DMSO, then assay buffer. On the day of the assay, cells are washed 3 times with 100 μl assay buffer and then incubated for 60 min (37° C., 5% CO2) in 60 μl assay buffer containing 1 μM Fluo-4AM ester, 0.02% pluronic acid, and 1% BSA. The dye loading solution is then aspirated and cells are washed 3 times with 100 μl assay buffer. 30 μl of that same buffer is left in each well. Within the Fluorescent Imaging Plate Reader (FLIPR, Molecular Devices), test compounds are added to the plate in a volume of 25 μl, incubated for 5 min and finally 25 μl of agonist is added. Fluorescence is measured for each well at 1 second intervals for 5 minutes and the height of each fluorescence peak is compared to the height of the fluorescence peak induced by 70 pM Ala-6,12 orexin-A with buffer in place of antagonist. For each antagonist, IC50 value (the concentration of compound needed to inhibit 50% of the agonist response) is determined. Alternatively, compound potency can be assessed by a radioligand binding assay (described in Bergman et. al. Bioorg. Med. Chem. Lett. 2008, 18, 1425-1430) in which the inhibition constant (Ki) is determined in membranes prepared from CHO cells expressing either the OX1 or OX2 receptor. The intrinsic orexin receptor antagonist activity of a compound which may be used in the present invention may be determined by these assays.

Chain of human orexin-2 receptor (O43614 whole entry): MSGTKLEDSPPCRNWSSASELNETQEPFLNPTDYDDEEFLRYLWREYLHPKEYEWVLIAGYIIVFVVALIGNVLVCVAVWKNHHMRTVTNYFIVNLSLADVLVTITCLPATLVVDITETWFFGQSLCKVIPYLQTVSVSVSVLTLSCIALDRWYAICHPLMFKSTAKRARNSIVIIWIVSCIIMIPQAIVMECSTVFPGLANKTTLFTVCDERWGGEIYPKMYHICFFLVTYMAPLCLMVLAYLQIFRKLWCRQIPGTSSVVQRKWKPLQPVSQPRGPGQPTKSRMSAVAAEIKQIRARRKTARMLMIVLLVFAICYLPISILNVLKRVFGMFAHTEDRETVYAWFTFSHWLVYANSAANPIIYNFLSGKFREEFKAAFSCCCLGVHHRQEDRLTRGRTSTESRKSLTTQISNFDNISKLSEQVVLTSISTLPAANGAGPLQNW

Broadly, the IC50 is the point on the concentration scale where inhibition reaches its midpoint. In the case of `Cc1cccc(C(=O)N2C[C@H](Oc3nccc4c3C(=O)OC4(C)C)CC[C@H]2C)c1-n1nccn1` [Example 8, 1,1-dimethyl-4-{[(3R,6R)-6-methyl-1-{[3-methyl-2-(2H-1,2,3-triazol-2-yl)phenyl]carbonyl}piperidin-3-yl]oxy}furo[3,4-c]pyridin-3(1H)-one], the results for the 50% inhibitory concentration (IC50) in experiment [1] and in experiment [2] were 3090 nM and 43 nM, respectively.
Take `C[C@@H]1CC[C@@H](Oc2nccc3c2C(=O)OC3(C)C)CN1C(=O)c1c(F)cccc1-n1nccn1` [Example 2, 4-{[(3R,6R)-1-{[2-Fluoro-6-(2H-1,2,3-triazol-2-yl)phenyl]carbonyl}-6-methylpiperidin-3-yl]oxy}-1,1-dimethylfuro[3,4-c]pyridin-3(1H)-one]: the IC50 is 10000 nM in experiment [1] and 44 nM in experiment [2].
With `C[C@@H]1OC(=O)c2c1ccnc2N[C@@H]1CC[C@@H](C)N(C(=O)c2ccccc2-n2nccn2)C1` [Example 46, (1S)-1-methyl-4-{[(3R,6R)-6-methyl-1-{[2-(2H-1,2,3-triazol-2-yl)phenyl]carbonyl}piperidin-3-yl]amino}furo[3,4-c]pyridin-3(1H)-one], the IC50 in experiment [1] was no less than 10000 nM; in experiment [2], 28 nM.
With `C[C@@H]1CC[C@@H](Nc2nccc3c2C(=O)OC3(C)C)CN1C(=O)c1ccsc1-n1nccn1` [Example 43, 1,1-dimethyl-4-{[(3R,6R)-6-methyl-1-{[2-(2H-1,2,3-triazol-2-yl)thiophen-3-yl]-carbonyl}piperidin-3-yl]amino}-furo[3,4-c]pyridin-3(1H)-one], the 50% inhibitory concentration (IC50) in experiment [1] amounted to 10000 nM; in experiment [2] it was 19 nM.
For `C[C@@H]1CC[C@@H](Oc2nccc3c2COC3=O)CN1C(=O)c1ccsc1-c1ncccn1` [Example 37, 4-({(3R,6R)-6-methyl-1-[(2-pyrimidin-2-ylthiophen-3-yl)carbonyl]piperidin-3-yl}oxy)furo[3,4-c]pyridin-1(3H)-one], in that order: 6160 nM and 27 nM.
For `Cc1noc(-c2ccc(F)cc2C(=O)N2C[C@H](Oc3nccc4c3C(=O)OC4(C)C)CC[C@H]2C)n1` [Example 18, 4-{[(3R,6R)-1-{[5-fluoro-2-(3-methyl-1,2,4-oxadiazol-5-yl)phenyl]carbonyl}-6-methylpiperidin-3-yl]oxy}-1,1-dimethylfuro[3,4-c]pyridin-3(1H)-one], in that order: 10000 nM and 90 nM.
For `COc1ccc(C(=O)N2C[C@H](Oc3nccc4c3C(=O)OC4(C)C)CC[C@H]2C)c(-n2nccn2)n1` [Example 12, 4-{[(3R,6R)-1-{[6-methoxy-2-(2H-1,2,3-triazol-2-yl)pyridin-3-yl]carbonyl}-6-methylpiperidin-3-yl]oxy}-1,1-dimethylfuro[3,4-c]pyridin-3(1H)-one], in that order: 10000 nM and 195 nM.
With `C[C@@H]1CC[C@@H](Oc2nccc3c2C(=O)OC3(C)C)CN1C(=O)c1cccc(F)c1-n1nccn1` [Example 7, 4-{[(3R,6R)-1-{[3-fluoro-2-(2H-1,2,3-triazol-2-yl)phenyl]carbonyl}-6-methylpiperidin-3-yl]oxy}-1,1-dimethylfuro[3,4-c]pyridin-3(1H)-one], the IC50 in experiment [1] turned out to be 10000 nM; in experiment [2] it was 132 nM.
Turning to `C[C@@H]1CC[C@@H](Oc2nccc3c2C(=O)OC3(C)C)CN1C(=O)c1ccccc1-c1ncccn1` [Example 22, 1,1-Dimethyl-4-{[(3R,6R)-6-methyl-1-{[2-(pyrimidin-2-yl)phenyl]carbonyl}piperidin-3-yl]oxy}furo[3,4-c]pyridin-3(1H)-one], the IC50 is 3260 nM in experiment [1] and 76 nM in experiment [2].
For `C[C@@H]1CC[C@@H](Nc2nccc3c2C(=O)OC3(C)C)CN1C(=O)c1ccccc1-n1ncnn1` [Example 41, 1,1-Dimethyl-4-{[(3R,6R)-6-methyl-1-{[2-(2H-tetrazol-2-yl)phenyl]carbonyl}piperidin-3-yl]amino}furo[3,4-c]pyridin-3(1H)-one], in that order: 10000 nM and 15 nM.
For `Cc1ccc(-n2nccn2)c(C(=O)N2C[C@H](Oc3nccc4c3C(=O)OC4(C)C)CC[C@H]2C)c1` [Example 5, 1,1-dimethyl-4-{[(3R,6R)-6-methyl-1-{[5-methyl-2-(2H-1,2,3-triazol-2-yl)phenyl]carbonyl}piperidin-3-yl]oxy}furo[3,4-c]pyridin-3(1H)-one], in that order: 2510 nM and 54 nM.
For `C[C@@H]1CC[C@@H](Oc2nccc3c2C(=O)OC3(C)C)CN1C(=O)c1c(F)cccc1-c1ncccn1` [Example 26, 4-({(3R,6R)-1-[(2-fluoro-6-pyrimidin-2-ylphenyl)carbonyl]-6-methylpiperidin-3-yl}oxy)-1,1-dimethylfuro[3,4-c]pyridin-3(1H)-one], in that order: 10000 nM and 109 nM.
As to `C[C@@H]1CC[C@@H](Oc2nccc3c2C(=O)OC3(C)C)CN1C(=O)c1ccc(F)cc1-c1ncccn1` [Example 23, 4-({(3R,6R)-1-[(4-fluoro-2-pyrimidin-2-ylphenyl)carbonyl]-6-methylpiperidin-3-yl}oxy)-1,1-dimethylfuro[3,4-c]pyridin-3(1H)-one], the results for the IC50 in experiment [1] and in experiment [2] were 10000 nM and 420 nM, respectively.
For the compound `Cc1nc(-c2cccc(F)c2C(=O)N2C[C@H](Oc3nccc4c3C(=O)OC4(C)C)CC[C@H]2C)no1` [Example 13, 4-{[(3R,6R)-1-{[2-fluoro-6-(5-methyl-1,2,4-oxadiazol-3-yl)phenyl]carbonyl}-6-methylpiperidin-3-yl]oxy}-1,1-dimethylfuro[3,4-c]pyridin-3(1H)-one], the IC50 was no less than 10000 nM in experiment [1] and 65 nM in experiment [2].
For `C[C@@H]1CC[C@@H](Oc2nccc3c2C(=O)OC3(C)C)CN1C(=O)c1c(F)cccc1-n1nccn1` [Example 6, 4-(((3R,6R)-1-(2-fluoro-6-(2H-1,2,3-triazol-2-yl)benzoyl)-6-methylpiperidin-3-yl)oxy)-1,1-dimethylfuro[3,4-c]pyridin-3(1H)-one], the concentration for half-maximal inhibition (IC50) in experiment [1] was 2710 nM; in experiment [2], 13 nM.
For `C[C@@H]1CC[C@@H](Oc2nccc3c2C(=O)OC3(C)C)CN1C(=O)c1ccccc1-n1ncnn1` [Example 21, 1,1-Dimethyl-4-{[(3R,6R)-6-methyl-1-{[2-(2H-tetrazol-2-yl)phenyl]carbonyl}piperidin-3-yl]oxy}furo[3,4-c]pyridin-3(1H)-one], in that order: 10000 nM and 109 nM.
With `C[C@@H]1CC[C@@H](Oc2nccc3c2C(=O)OC3(C)C)CN1C(=O)c1ccsc1-c1ncccn1` [Example 25, 1,1-dimethyl-4-(((3R,6R)-6-methyl-1-(2-(pyrimidin-2-yl)thiophene-3-carbonyl)piperidin-3-yl)oxy)furo[3,4-c]pyridin-3(1H)-one], the 50% inhibitory concentration (IC50) in experiment [1] was determined as 9110 nM; in experiment [2], 44 nM.
As to `C[C@@H]1CC[C@@H](Nc2nccc3c2C(=O)OC3(C)C)CN1C(=O)c1ccccc1-c1ncccn1` [Example 42, 1,1-dimethyl-4-({(3R,6R)-6-methyl-1-[(2-pyrimidin-2-ylphenyl)carbonyl]-piperidin-3-yl}amino)furo[3,4-c]pyridin-3(1H)-one], the IC50 was found to be 2860 nM in experiment [1] and 26 nM in experiment [2].
Take `C[C@@H]1CC[C@@H](Oc2nccc3c2C(=O)OC3(C)C)CN1C(=O)c1cccc(F)c1-c1ncccn1` [Example 27, 4-({(3R,6R)-1-[(3-fluoro-2-pyrimidin-2-ylphenyl)carbonyl]-6-methylpiperidin-3-yl}oxy)-1,1-dimethylfuro[3,4-c]pyridin-3(1H)-one]: the IC50 stood at 10000 nM in experiment [1] and 139 nM in experiment [2].
As for `C[C@@H]1CC[C@@H](Oc2nccc3c2C(=O)OC3(C)C)CN1C(=O)c1cc(F)ccc1-c1ncccn1` [Example 24, 4-({(3R,6R)-1-[(5-fluoro-2-pyrimidin-2-ylphenyl)carbonyl]-6-methylpiperidin-3-yl}oxy)-1,1-dimethylfuro[3,4-c]pyridin-3(1H)-one], the IC50 in experiment [1] worked out at 10000 nM; in experiment [2], 72 nM.
